According to patent US4220771A, “2,3-Polymethylene-4-oxo-4H-pyrido[1,2-a]pyrimidines” (Chinoin Gyogyszer es Vegyeszeti Termekek Gyara Rt, priority 1977, dated 1980):
Counter-ions that a name gives are not always drawn.

Key:
Format in all cases: in vivo
[1] = system: mice; assay: analgesic activity, "hot plate" test; conditions: for ED50: Mus musculus
Description: (§1) Also the analgesic and morphine-potentiating activities were investigated on mice. The test results obtained in a "hot plate" test (J. Pharm. Exp. Therp. 80 130 (1944) and Kiserl. Orvostudomany 2, 295 (1950) and results obtained in laparotomic test of Knoll (Animal and Clinical Pharmacologic Techniques in Drug Evaluation. Vol. 2. 305-321 (1967), Year Book Publ. Chicago) are shown in Table 1.

[2] = system: mice; assay: morphine-potentiating activity; conditions: i.v., with 5 mg. morphine
Description: as §1

[3] = system: mice; assay: toxicity in mice, 48 hours observation, Litchfield-Wilcoxon graphic method
[4] = as above; conditions: mouse, in vivo

In the case of `CCOC(=O)c1c[n+](C)c2n(c1=O)C(C)CCC2.COS(=O)(=O)[O-]` (stereo not drawn) [PROBON, reference compound], the “Hot plate ED50” value ([1]; i.v.) is reported as 43 mg/kg, the “Hot plate ED50” value ([1]; s.c.) is reported as 75 mg/kg and the “Dose potentiating the activity of 5 mg. morphine, ED50” value (from here on “Dose potentiating the activity”) [2] is reported as 25.0 mg/kg. It also gave an LD50 ([3]; i.v.) of 220 mg/kg and an LD50 ([3]; s.c.) of 790 mg/kg.

With `O=c1c2c(nc3ccccn13)CCCCCC2` [2,3-hexamethylene-4-oxo-4H-pyrido(1,2-a)pyrimidine-hydrochloride] the ED50 ([1]; sc) was 105 mg/kg, the “Dose potentiating the activity” value [2] was 4.5 mg/kg and the LD50 at 48 h ([4]; iv) was 125 mg/kg. It also gave an LD50 at 48 h ([4]; sc) of 500 mg/kg.

For `Cc1ccc2nc3c(c(=O)n2c1)CCC3` [2,3-trimethylene-7-methyl-4-oxo-4H-pyrido(1,2-a)pyrimidine-hydrochloride], the ED50 ([1]; iv) was 47 mg/kg, the “Dose potentiating the activity” value [2] was 1.0 mg/kg and the LD50 at 48 h ([4]; iv) was 120 mg/kg.

For `Cc1ccn2c(=O)c3c(nc2c1)CCC3` [2,3-trimethylene-8-methyl-4-oxo-4H-pyrido(1,2-a)pyrimidine-hydrochloride], the ED50 ([1]; iv) was 65 mg/kg, the “Dose potentiating the activity” value [2] was 4.8 mg/kg and the LD50 at 48 h ([4]; iv) was 120 mg/kg.

With `O=c1c2c(nc3ccccn13)CCCCC2` [2,3-pentamethylene-4-oxo-4H-pyrido(1,2-a)pyrimidine-hydrochloride] the ED50 ([1]; sc) was 66 mg/kg, the “Dose potentiating the activity” value [2] was 3.7 mg/kg and the LD50 at 48 h ([4]; iv) was 210 mg/kg. It also gave an LD50 at 48 h ([4]; sc) of 630 mg/kg.

For `Cc1cc(C)n2c(=O)c3c(nc2c1)CCC3` [2,3-trimethylene-6,8-dimethyl-4-oxo-4H-pyrido(1,2-a)pyrimidine-hydrochloride], the ED50 ([1]; iv) was 42 mg/kg, the “Dose potentiating the activity” value [2] was 1.0 mg/kg and the LD50 at 48 h ([4]; iv) was 120 mg/kg.

With `Cc1cccc2nc3c(c(=O)n12)CCCC3` [2,3-tetramethylene-6-methyl-4-oxo-4H-pyrido(1,2-a)pyrimidine-hydrochloride] the “Dose potentiating the activity” value [2] was 7.8 mg/kg and the LD50 at 48 h ([4]; iv) was 160 mg/kg.
